Results taken from patent US20250161308A1, “Methods of Treating Covid-Related Disorders” (priority 2022, published 2025).
Read-outs that look alike come from different tables or passages of the source.

Tests used:
[1] = tested on: Rat primary cortical neuron cultures; format: cell-based; conditions: for Significance of neuroprotection vs 1 uM LPS: 24 h LPS; for protection of primary neurons from LPS-stimulated inflammatory toxicity: at at least one dose tested
Rat hippocampal neurons [2] = assay: Synaptogenesis assay; format: cell-based; conditions: for Significant increase in: Synapses: Table 4 study
[3] = tested on: pulmonary LPS-stimulated rats; assay: Cytokine expression in BALF supernatant (multiplex immunoassay), LPS acute pulmonary inflammation; format: in vivo, rat
[4] = tested on: LPS-induced cognitive deficit in CD-1 mice; assay: Rodent LPS model of brain inflammation, T-maze spontaneous alternation; format: in vivo, mouse; conditions: for Recovery (%) / Spontaneous alternation (%) Mean: LPS 250 μg/kg
Rat hippocampal neurons [5] = assay: Neurite outgrowth assay; format: cell-based
[6] = tested on: THP1-differentiated macrophages; format: cell-based, human; parameters: key to Significant reduction in IL-6 / Significant reduction in TNF-α / Significant reduction in IL-1β: NS: indicates a non-significant reduction in the indicated cytokine; +: indicates a p value<0.05 in Tukey post test; ++: indicates a p value<0.01 in Tukey post test; conditions: for Significant reduction in IL-1β / Significant reduction in IL-6 / Significant reduction in TNF-α: 24 hrs LPS
[7] = tested on: pulmonary LPS-stimulated rats; assay: Immune cell infiltration in BALF, LPS acute pulmonary inflammation; format: in vivo, rat
[8] = tested on: scopolamine-induced spatial memory deficits in rats; assay: Scopolamine-induced spatial memory deficit, Morris water maze (3 mg/kg scopolamine, 8 days); format: in vivo, rat

CCC(C)CN1CC2N(Cc3ccc(C(F)(F)F)cc3)CCC(=O)N2[C@@H](C)C1=O (some centres unmarked) [Compound 5a]
Significance of neuroprotection vs 1 uM LPS ([1]; 0.1 nM): +++ (+++ indicates p<0.001) | Significance of neuroprotection vs 1 uM LPS ([1]; 1 nM): +++ (+++ indicates p<0.001) | Significance of neuroprotection vs 1 uM LPS ([1]; 10 nM): +++ (+++ indicates p<0.001) | Significance of neuroprotection vs 1 uM LPS ([1]; 100 nM): +++ (+++ indicates p<0.001) | Significance of neuroprotection vs 1 uM LPS ([1]; 1 μM): +++ (+++ indicates p<0.001) | protection of primary neurons from LPS-stimulated inflammatory toxicity [1]: protected primary neurons from LPS-stimulated inflammatory toxicity | synapse counts (in words) (Rat hippocampal neurons [2]): increase synapse counts at doses of 1 nM and 100 nM | Significant increase in: Synapses (Rat hippocampal neurons [2]; 1 nM): ++++ (++++ = p < 0.0001) | Significant increase in: Synapses (Rat hippocampal neurons [2]; 100 nM): ++++ (++++ = p < 0.0001) | CCL3, significant change in expression in BALF supernatant ([3]; 0.075 mg/kg IV): + (+ = Significant change in cytokine quantification, p < 0.05 by Student's T-test.) | CX3CL1, significant change in expression in BALF supernatant ([3]; 0.075 mg/kg IV): + (+ = Significant change in cytokine quantification, p < 0.05 by Student's T-test.) | EGF, significant change in expression in BALF supernatant ([3]; 0.075 mg/kg IV): + (+ = Significant change in cytokine quantification, p < 0.05 by Student's T-test.) | IFN-γ, significant change in expression in BALF supernatant ([3]; 0.075 mg/kg IV): + (+ = Significant change in cytokine quantification, p < 0.05 by Student's T-test.) | IL-1α, significant change in expression in BALF supernatant ([3]; 0.075 mg/kg IV): + (+ = Significant change in cytokine quantification, p < 0.05 by Student's T-test.) | IL-1β, significant change in expression in BALF supernatant ([3]; 0.075 mg/kg IV): + (+ = Significant change in cytokine quantification, p < 0.05 by Student's T-test.) | IL-10, significant change in expression in BALF supernatant ([3]; 0.075 mg/kg IV): + (+ = Significant change in cytokine quantification, p < 0.05 by Student's T-test.) | IL-12p70, significant change in expression in BALF supernatant ([3]; 0.075 mg/kg IV): + (+ = Significant change in cytokine quantification, p < 0.05 by Student's T-test.) | IL-17A, significant change in expression in BALF supernatant ([3]; 0.075 mg/kg IV): + (+ = Significant change in cytokine quantification, p < 0.05 by Student's T-test.) | IFN-γ, significant change in expression in BALF supernatant ([3]; 0.75 mg/kg IV): + (+ = Significant change in cytokine quantification, p < 0.05 by Student's T-test.) | IL-1α, significant change in expression in BALF supernatant ([3]; 0.75 mg/kg IV): + (+ = Significant change in cytokine quantification, p < 0.05 by Student's T-test.) | IL-1β, significant change in expression in BALF supernatant ([3]; 0.75 mg/kg IV): + (+ = Significant change in cytokine quantification, p < 0.05 by Student's T-test.) | IL-10, significant change in expression in BALF supernatant ([3]; 0.75 mg/kg IV): + (+ = Significant change in cytokine quantification, p < 0.05 by Student's T-test.) | IL-17A, significant change in expression in BALF supernatant ([3]; 0.75 mg/kg IV): + (+ = Significant change in cytokine quantification, p < 0.05 by Student's T-test.) | IL-1α, significant change in expression in BALF supernatant ([3]; 7.5 mg/kg IV): + (+ = Significant change in cytokine quantification, p < 0.05 by Student's T-test.) | IL-10, significant change in expression in BALF supernatant ([3]; 7.5 mg/kg IV): + (+ = Significant change in cytokine quantification, p < 0.05 by Student's T-test.) | cytokines with significant changes in expression in BALF supernatant (list) ([3]; any dose, p<0.05 vs LPS-only animals): CCL3, CXCL1, IFN-γ, IL-1α, IL-1p, IL-1β, IL-12p70, and IL-17A | Recovery (%) ([4]; 1.25 mg/kg p.o. 14 days): 58% | Spontaneous alternation (%) Mean ([4]; 1.25 mg/kg p.o. 14 days): 59% | Spontaneous alternation (%) Mean ([4]; 1.25 mg/kg p.o. 14 days, listed as Cmpd 5a): 59.3% | Recovery (%) ([4]; 2.5 mg/kg p.o. 14 days): 53% | Spontaneous alternation (%) Mean ([4]; 2.5 mg/kg p.o. 14 days): 58% | Spontaneous alternation (%) Mean ([4]; 2.5 mg/kg p.o. 14 days, listed as Cmpd 5a): 57.9% | Recovery (%) ([4]; 5 mg/kg p.o. 14 days): 64% | Spontaneous alternation (%) Mean ([4]; 5 mg/kg p.o. 14 days): 61% | Spontaneous alternation (%) Mean ([4]; 5 mg/kg p.o. 14 days, listed as Cmpd 5a): 60.7% | Recovery (%) ([4]; 10 mg/kg p.o. 14 days): 53% | Spontaneous alternation (%) Mean ([4]; 10 mg/kg p.o. 14 days): 58% | Spontaneous alternation (%) Mean ([4]; 10 mg/kg p.o. 14 days, listed as Cmpd 5a): 57.9% | Recovery (%) ([4]; 20 mg/kg p.o. 14 days): 61% | Spontaneous alternation (%) Mean ([4]; 20 mg/kg p.o. 14 days): 60% | Spontaneous alternation (%) Mean ([4]; 20 mg/kg p.o. 14 days, listed as Cmpd 5a): 60.0% | significance of reversal of LPS-induced cognitive deficit (in words) ([4]; T-maze): significant reversal of LPS-induced cognitive deficits at all doses | neurite length / extension of neurites (in words) (Rat hippocampal neurons [5]): increase neurite length at 1 nM | Significant increase in: Neurite length (Rat hippocampal neurons [5]; 1 nM, Table 4 study): ++++ (++++ = p < 0.0001) | Significant reduction in IL-1β ([6]; 0.1 nM): ++ (indicates a p value<0.01 in Tukey post test) | Significant reduction in IL-6 ([6]; 0.1 nM): NS | Significant reduction in TNF-α ([6]; 0.1 nM): NS | Significant reduction in IL-1β ([6]; 10 nM): ++ (indicates a p value<0.01 in Tukey post test) | Significant reduction in IL-6 ([6]; 10 nM): + (indicates a p value<0.05 in Tukey post test) | Significant reduction in TNF-α ([6]; 10 nM): NS | Significant reduction in IL-1β ([6]; 1000 nM): ++ (indicates a p value<0.01 in Tukey post test) | Significant reduction in IL-6 ([6]; 1000 nM): ++ (indicates a p value<0.01 in Tukey post test) | Significant reduction in TNF-α ([6]; 1000 nM): + (indicates a p value<0.05 in Tukey post test) | expression of IL-1β (in words) ([6]; at at least one tested dose): significantly reduced the expression of IL-1β and TNF-α | expression of IL-6 (in words) ([6]; at at least one tested dose): significantly reduced the expression of IL-6 | expression of TNF-α (in words) ([6]; at at least one tested dose): significantly reduced the expression of IL-1β and TNF-α | Neutrophils in BALF, reduction vs disease control ([7]; 0.075 mg/kg IV): ++ (++ = >25% reduction in cell count vs disease control) | Total Leukocytes in BALF, reduction vs disease control ([7]; 0.075 mg/kg IV): ++ (++ = >25% reduction in cell count vs disease control) | Neutrophils in BALF, reduction vs disease control ([7]; 0.75 mg/kg IV): + (+ = >5% reduction in cell count vs disease control) | Total Leukocytes in BALF, reduction vs disease control ([7]; 0.75 mg/kg IV): + (+ = >5% reduction in cell count vs disease control) | Neutrophils in BALF, reduction vs disease control ([7]; 7.5 mg/kg IV): + (+ = >5% reduction in cell count vs disease control) | Total Leukocytes in BALF, reduction vs disease control ([7]; 7.5 mg/kg IV): + (+ = >5% reduction in cell count vs disease control) | neutrophil counts compared to LPS-only controls (in words) ([7]; rat, in vivo): reduced both total leukocyte counts and neutrophil counts | total leukocyte counts compared to LPS-only controls (in words) ([7]; rat, in vivo): reduced both total leukocyte counts and neutrophil counts

CCC(C)CN1CC2N(Cc3ccc(OC(F)F)cc3)CCC(=O)N2[C@@H](C)C1=O (some centres unmarked) [Compound 6a]
Significance of neuroprotection vs 1 uM LPS ([1]; 0.1 nM): +++ (+++ indicates p<0.001) | Significance of neuroprotection vs 1 uM LPS ([1]; 1 nM): +++ (+++ indicates p<0.001) | Significance of neuroprotection vs 1 uM LPS ([1]; 10 nM): +++ (+++ indicates p<0.001) | Significance of neuroprotection vs 1 uM LPS ([1]; 100 nM): +++ (+++ indicates p<0.001) | Significance of neuroprotection vs 1 uM LPS ([1]; 1 μM): +++ (+++ indicates p<0.001) | protection of primary neurons from LPS-stimulated inflammatory toxicity [1]: protected primary neurons from LPS-stimulated inflammatory toxicity | Significant reduction in IL-1β ([6]; 0.1 nM): NS | Significant reduction in IL-6 ([6]; 0.1 nM): NS | Significant reduction in TNF-α ([6]; 0.1 nM): NS | Significant reduction in IL-1β ([6]; 10 nM): NS | Significant reduction in IL-6 ([6]; 10 nM): NS | Significant reduction in TNF-α ([6]; 10 nM): NS | Significant reduction in IL-1β ([6]; 1000 nM): + (indicates a p value<0.05 in Tukey post test) | Significant reduction in IL-6 ([6]; 1000 nM): NS | Significant reduction in TNF-α ([6]; 1000 nM): + (indicates a p value<0.05 in Tukey post test) | expression of IL-1β (in words) ([6]; at at least one tested dose): significantly reduced the expression of IL-1β and TNF-α | expression of TNF-α (in words) ([6]; at at least one tested dose): significantly reduced the expression of IL-1β and TNF-α | Cognitive Improvement ([8]; 1 mg/kg PO): − (− indicates post-test p-value above 0.06) | Cognitive Improvement ([8]; 10 mg/kg PO): ++ (++ indicates post-test p-value between 0.05 and 0.01)
